Experimental data taken from article PMC4770311, “Discovery and Characterization of GSK2801, a Selective Chemical Probe for the Bromodomains BAZ2A and BAZ2B” (Journal of Medicinal Chemistry, 2015).

Tests used:
BAZ2A = target: T1, BAZ2A (Homo sapiens, UniProt Q9UIF9); assay: AlphaScreen assay BAZ2A; assay type: binding; settings: average of three replicates ± SEM
T1 construct: Recombinant BAZ2A and BAZ2B bromodomains were expressed in; made in house; host or cells: E. coli
T1 sequence (Q9UIF9 1793-1897 limits assumed): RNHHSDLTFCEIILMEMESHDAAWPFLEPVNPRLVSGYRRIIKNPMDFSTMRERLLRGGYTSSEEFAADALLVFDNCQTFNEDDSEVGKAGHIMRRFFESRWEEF
Protocol: AlphaScreen: AlphaScreen was performed as described previously 10, with minor modifications from the manufacturers protocol (PerkinElmer, USA). Briefly, all reagents were diluted in the recommended buffer (50 mM HEPES, 100 mM NaCl, 0.1% BSA; pH = 7.4) supplemented with 0.05% CHAPS and allowed to equilibrate to room temperature prior to […]
Plates were sealed and incubated at room temperature for 30 min. 4 μL of streptavidin-coated donor beads (10ug/mL final) and 4 μL of nickel chelate acceptor beads (10 μg/ml final) were then added under low light conditions. Plates were foil sealed to protect from light, incubated at room temperature for 60 min and read on a PHERAstar FS plate reader (BMG Labtech, Germany) using an AlphaScreen 680 excitation/570 emission filter set.
Fragments were dissolved in ethylene glycol to overcome sensitivity of the bromodomain assay to DMSO and allow compounds to be screened at mM concentrations. IC50 […]
measurements were taken over a 12 point 1:2 serial dilution of compound. IC50s were calculated in GraphPad Prism 5 (GraphPad Software, USA). […]

BRD2 = test system: BRD2; set-up: method as in PMID 21804994, PMID 22136404; settings: reported activity; read-out: TR-FRET assay: BRD2; cited from earlier work
BRD4 = test system: BRD4; set-up: method as in PMID 21804994, PMID 22136404; settings: reported activity; read-out: TR-FRET assay: BRD4; cited from earlier work

CC(=O)c1cc(-c2ccccn2)c2ccccn12 [Compound 1]
IC50 (BAZ2A): 1500 ± 60 nM
IC50 (BRD2): 2000 nM
IC50 (BRD4): 2000 nM
